# Reference: US9404115B2, “Coryneform bacterium transformant and process for producing phenol using the same” (priority 2010, dated 2016)
# Where two headings read alike, the source gives them in different places.
# Key:
# [1] = tested on: Escherichia coli JM109; settings: aerobic, LB, 37° C., OD610
# Description: (§1) A growth inhibition test in aerobic culture was performed to examine the influence of phenol on Corynebacterium glutamicum, Escherichia coli, and Pseudomonas putida. Pseudomonas putida S12, which was used for the test, is reported to be a solvent-resistant strain. In the report, disclosed is an unparalleled technology using the strain as a host in phenol production.
# Escherichia coli JM109 was applied to LB agar medium (1% polypeptone, 0.5% yeast extract, 0.5% NaCl and 1.5% agar) and was left stand in the dark at 37° C. for 15 hours.
# An inoculation loop of the Escherichia coli JM109 grown on a plate as above was inoculated into a test tube containing 10 mL of LB liquid medium (1% polypeptone, 0.5% yeast extract, and 0.5% NaCl), and aerobic culture was performed with shaking at 37° C. for 13 hours.
# The Escherichia coli JM109 grown in the above conditions was inoculated into 100 mL of LB liquid medium in such a way that the initial bacterial cell concentration would be OD610=0.05, phenol was added at the same time in such a way that the final concentration would be 0, 0.16, or 0.20 mM, and aerobic culture was performed with shaking at 37° C. The growth of bacterial cells was determined by absorbance measurement at OD610.
# [2] = tested on: Corynebacterium glutamicum R; settings: aerobic, A liquid medium, 33° C., OD610
# Description: as §1
# Corynebacterium glutamicum R was applied to A agar medium (2 g of […], 7 g of (NH4)2SO4, 0.5 g of KH2PO4, 0.5 g of K2HPO4, 0.5 g of MgSO4.7H2O, 1 mL of 0.06% (w/v) Fe2SO4.7H2O+0.042% (w/v) MnSO4.2H2O, 1 mL of 0.02% (w/v) biotin solution, 2 mL of 0.01% (w/v) thiamin solution, 2 g of yeast extract, 7 g of vitamin assay casamino acid, 40 g of glucose, and 15 g of agar were suspended in 1 L of distilled water) and was left stand in the dark at 33° C. for 15 hours.
# An inoculation loop of the Corynebacterium glutamicum R grown on a plate as above was inoculated into a test tube containing 10 mL of A liquid medium (2 g of (NH2)2CO, 7 g of (NH4)2SO4, 0.5 g of KH2PO4, 0.5 g of K2HPO4, 0.5 g of MgSO4.7H2O, 1 mL of 0.06% (w/v) Fe2SO4.7H2O+0.042% (w/v) MnSO4.2H2O, 1 mL of 0.02% (w/v) biotin solution, 2 mL of 0.01% (w/v) thiamin solution, 2 g of yeast extract, 7 g of vitamin assay casamino acid, and 40 g of glucose were suspended in 1 L of distilled water) and was aerobically cultured with shaking at 33° C. for 13 hours.
# The Corynebacterium glutamicum R grown in the above conditions was inoculated into 100 mL of A liquid medium in such a way that the initial bacterial cell concentration would be OD610=0.05, phenol was added at the same time in such a way that the final concentration would be 0, 0.16, 0.2, 0.24, or 0.32 mM, and aerobic culture was performed with shaking at 33° C. The growth of bacterial cells was determined by absorbance measurement at OD610.
# [3] = tested on: Corynebacterium glutamicum R; settings: reducing conditions (ORP −450 mV), 8% glucose, 33° C.
# [4] = tested on: Pseudomonas putida F1; settings: aerobic, LB (+glucose), 30° C., OD610
# Description: as §1
# (§2) Pseudomonas putida F1 and S12 were applied to LB agar medium (1% polypeptone, 0.5% yeast extract, 0.5% NaCl and 1.5% agar) and were left stand in the dark at 30° C. for 15 hours.
# (§3) An inoculation loop of each of the Pseudomonas putida F1 and S12 grown on a plate as above was inoculated into a test tube containing 10 mL of LB (+glucose) liquid medium (1% polypeptone, 0.5% yeast extract, 0.5% NaCl and 0.4% glucose), and aerobic culture was performed with shaking at 30° C. for 13 hours.
# (§4) The Pseudomonas putida F1 and S12 grown in the above conditions were each inoculated into 100 mL of LB (+glucose) liquid medium in such a way that the initial bacterial cell concentration would be OD610=0.05, phenol was added at the same time in such a way that the final concentration would be 0, 0.10, or 0.20 mM, and aerobic culture was performed with shaking at 30° C. The growth of bacterial cells was determined by absorbance measurement at OD610.
# [5] = tested on: Pseudomonas putida S12; settings: aerobic, LB (+glucose), 30° C., OD610
# Description: as §1, §2, §3, §4
smiles,measurement,setting,value
Oc1ccccc1 [phenol],proliferation of Escherichia coli,[1]; 0.16% phenol,significantly affected
same,proliferation of Escherichia coli,[1]; 0.20% phenol,completely inhibited
same,proliferation of Corynebacterium glutamicum,[2]; 0.16% phenol,hardly affected
same,proliferation of Corynebacterium glutamicum,[2]; 0.20% phenol,favorable growth
same,proliferation of Corynebacterium glutamicum,[2]; 0.24% phenol,able to proliferate
same,saccharide consumption by Corynebacterium glutamicum R,[3]; 0.24% phenol,no influence of phenol was observed
same,saccharide consumption by Corynebacterium glutamicum R,[3]; 0.38% phenol,saccharide consumption was observed
same,saccharide consumption by Corynebacterium glutamicum R,[3]; 0.46% phenol,slightly observed
same,proliferation of Pseudomonas putida F1,[4]; 0.10% phenol,significantly affected
same,proliferation of Pseudomonas putida F1,[4]; 0.20% phenol,completely inhibited
same,proliferation of Pseudomonas putida S12,[5]; 0.10% phenol,significantly affected
same,proliferation of Pseudomonas putida S12,[5]; 0.20% phenol,completely inhibited
